According to patent publication US10065950B2, “Substituted thiazoles as HIV integrase inhibitors” (Japan Tobacco Inc., priority 2010, dated 2018):

Biological target: HIV-1 pNL4-3 integrase (Human immunodeficiency virus type 1 group M subtype B (isolate NY5) (HIV-1), UniProt P12497)
Test: Determination of enzyme (HIV integrase) inhibitory activity
Type: biochemical
Conditions: calculated from inhibition rate (fluorescence)
Outline: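 Full-length pNL4-3 integrase from E. coli (0.75 μM stock) reacted 60 min at 37° C with compound and biotinylated donor DNA bound to streptavidin plates, in MOPS buffer with 5 mM MgCl2 and 10% DMSO. Digoxigenin-labelled target DNA (25 nM stock) then added for 20 min; strand transfer read by peroxidase anti-digoxigenin fluorescence (Ex 325/Em 420 nm).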

`CCCN1C[C@H](COCC)n2cc(-c3nnc(Cc4ccc(F)cc4)s3)c(=O)c(O)c2C1=O` [Example 357] and `CCCCN1C[C@H](COCCOC)n2cc(-c3nnc(Cc4ccc(F)cc4)s3)c(=O)c(O)c2C1=O` [Example 362] are within 1.5-fold of each other in IC50: 0.0073 µM for the first, 0.01 µM for the second.

First: CC(C)N1C[C@H](Cn2cncn2)n2cc(-c3nnc(Cc4ccc(F)cc4)s3)c(=O)c(O)c2C1=O [Example 358]
Second: CC(C)N1C[C@H](Cn2cnnn2)n2cc(-c3nnc(Cc4ccc(F)cc4)s3)c(=O)c(O)c2C1=O [Example 359]
The IC50 of the first is 2.5-fold higher: 0.012 µM for the first, 0.0048 µM for the second. The second is the more potent here.

`CC(C)N1C[C@H](CS(=O)(=O)C(C)(C)C)n2cc(-c3nnc(Cc4ccc(F)cc4)s3)c(=O)c(O)c2C1=O` [Example 360] and `CC(C)OC[C@H]1CN(C(C)C)C(=O)c2c(O)c(=O)c(-c3nnc(Cc4ccc(F)cc4)s3)cn21` [Example 365] are within 1.5-fold of each other in IC50: 0.011 µM for the first, 0.012 µM for the second.

First: CCOC[C@H]1CN(C(C)(C)C)C(=O)c2c(O)c(=O)c(-c3nnc(Cc4ccc(F)cc4)s3)cn21 [Example 361]
Second: CCCOC[C@H]1CN(C(C)C)C(=O)c2c(O)c(=O)c(-c3nnc(Cc4ccc(F)cc4)s3)cn21 [Example 363]
The IC50 of the first is 1.7-fold higher: 0.015 µM for the first, 0.0087 µM for the second. The second is the more potent here.

`CCCCOC[C@H]1CN(C(C)C)C(=O)c2c(O)c(=O)c(-c3nnc(Cc4ccc(F)cc4)s3)cn21` [Example 364] and `CO[C@@H](C)COC[C@H]1CN(C(C)C)C(=O)c2c(O)c(=O)c(-c3nnc(Cc4ccc(F)cc4)s3)cn21` [Example 385] are within 1.5-fold of each other in IC50: 0.01 µM for the first, 0.0082 µM for the second.

First: CCC(OC)[C@H]1CN(C(C)C)C(=O)c2c(O)c(=O)c(-c3nnc(Cc4ccc(F)cc4)s3)cn21 (stereo partly drawn) [Example 382]
Second: CCO[C@H](CC)[C@H]1CN(C(C)C)C(=O)c2c(O)c(=O)c(-c3nnc(Cc4ccc(F)cc4)s3)cn21 [Example 389]
The IC50 of the first is 1.6-fold lower: 0.0087 µM for the first, 0.014 µM for the second.

Going from `CCC(OC)[C@H]1CN(C(C)C)C(=O)c2c(O)c(=O)c(-c3nnc(Cc4ccc(F)cc4)s3)cn21` (stereo partly drawn) [Example 383] to `CO[C@H](C)[C@H]1CN(C(C)C)C(=O)c2c(O)c(=O)c(-c3ncc(Cc4ccc(F)cc4)s3)cn21` [Example 386], the IC50 rises from 0.0079 µM to 0.015 µM (1.9-fold). The first is the more potent here.

`CO[C@@H](C)COC[C@H]1CN(C2CC2)C(=O)c2c(O)c(=O)c(-c3nnc(Cc4ccc(F)cc4)s3)cn21` [Example 384] and `CCN1C(=O)c2c(O)c(=O)c(-c3nnc(Cc4ccc(F)cc4)s3)cn2C[C@@H]1[C@@H](C)OC` [Example 395] are within 1.5-fold of each other in IC50: 0.012 µM for the first, 0.01 µM for the second.

`CO[C@H](C)[C@@H]1CN(C(C)C)C(=O)c2c(O)c(=O)c(-c3ncc(Cc4ccc(F)cc4)s3)cn21` [Example 387] and `CO[C@@H](C)[C@H]1CN(C(C)C)C(=O)c2c(O)c(=O)c(-c3ncc(Cc4ccc(F)cc4)s3)cn21` [Example 388] are within 1.5-fold of each other in IC50: 0.011 µM for the first, 0.0086 µM for the second.

`COCCOC[C@@]1(C(=O)N(C)C)CN(C(C)C)C(=O)c2c(O)c(=O)c(-c3nnc(Cc4ccc(F)cc4)s3)cn21` [Example 391] and `CCN(C)C(=O)[C@]1(COCCOC)CN(C(C)C)C(=O)c2c(O)c(=O)c(-c3nnc(Cc4ccc(F)cc4)s3)cn21` [Example 397] are within 1.5-fold of each other in IC50: 0.024 µM for the first, 0.019 µM for the second.

`CC[C@]1(C(=O)N2CCC2)CN(C(C)C)C(=O)c2c(O)c(=O)c(-c3nnc(Cc4ccc(F)cc4)s3)cn21` [Example 392] and `CCN(C)C(=O)[C@]1(COC)CN(C(C)C)C(=O)c2c(O)c(=O)c(-c3nnc(Cc4ccc(F)cc4)s3)cn21` [Example 396] are within 1.5-fold of each other in IC50: 0.011 µM for the first, 0.015 µM for the second.

`CCNC(=O)[C@]1(COC)CN(C(C)C)C(=O)c2c(O)c(=O)c(-c3ncc(Cc4ccc(F)cc4)s3)cn21` [Example 393] and `CCNC(=O)[C@]1(COCCOC)CN(C(C)C)C(=O)c2c(O)c(=O)c(-c3ncc(Cc4ccc(F)cc4)s3)cn21` [Example 394] are within 1.5-fold of each other in IC50: 0.015 µM for the first, 0.014 µM for the second.
